Key:
[1] = 10 and 20 mg daily, compared to placebo; cited from earlier work
[2] = wild-type versus CB1 receptor knockout mice; cited from earlier work
[3] = target: T1, human cannabis CB1 receptor (Homo sapiens, UniProt P21554); assay: Affinity for cannabinoid CB1 receptors, [3H]-CP-55,940 radioligand binding on HEK cell membranes; settings: affinity for the CB1 receptor
T1 construct: expressed in transfected cells; host or cells: human embryonic kidney (HEK) cells, transient, Semliki Forest Virus system; membrane preparation
Method: The affinity of the compounds of the invention for cannabinoid CB1 receptors was determined using membrane preparations of human embryonic kidney (HEK) cells in which the human cannabis CB1 receptor is transiently transfected using the Semliki Forest Virus system in conjunction with [3H]-CP-55,940 as radioligand. After incubation of a freshly prepared cell membrane preparation with the [3H]-ligand, with or without addition of compounds of the invention, separation of bound and free ligand was performed by filtration over glassfiber filters. Radioactivity on the filter was measured by liquid scintillation counting. The affinity of the compounds of the invention for cannabinoid CB2 receptors was determined using membrane preparations of human embryonic kidney (HEK) cells in which the human cannabis CB2 receptor is transiently transfected using the Semliki Forest virus system in conjunction with [3H]-CP-55,940 as radioligand. After incubation of a freshly prepared cell membrane preparation with the [3H]-ligand, with or without addition of compounds of the invention, separation of bound of bound and free ligand was performed by filtration over glassfiber filters. Radioactivity on the filter was measured by liquid scintillation counting. The cannabinoid CB1 antagonistic activity of compounds of the invention was determined by functional studies using CHO cells in which human cannabinoid CB1 receptors are stably expressed (see M. Rinaldi-Carmona et. al., J. Pharmacol. Exp. Ther. 278 (1996) 871). The stable expression of the human cannabinoid receptor in cell systems was first described in Nature 1990, 346, 561-564 (CB1) and Nature 1993, 365, 61-65 (CB2) respectively. Adenylyl cyclase was stimulated using forskolin and measured by quantifying the amount of accumulated cyclic AMP. […]
The compounds of formula (I) show an excellent affinity for the CB1 receptor, determined with the experimental conditions described in Devane et. al. Mol. Pharmacol. 34 (1988) 605-613. […]

T1 sequence (P21554 whole entry): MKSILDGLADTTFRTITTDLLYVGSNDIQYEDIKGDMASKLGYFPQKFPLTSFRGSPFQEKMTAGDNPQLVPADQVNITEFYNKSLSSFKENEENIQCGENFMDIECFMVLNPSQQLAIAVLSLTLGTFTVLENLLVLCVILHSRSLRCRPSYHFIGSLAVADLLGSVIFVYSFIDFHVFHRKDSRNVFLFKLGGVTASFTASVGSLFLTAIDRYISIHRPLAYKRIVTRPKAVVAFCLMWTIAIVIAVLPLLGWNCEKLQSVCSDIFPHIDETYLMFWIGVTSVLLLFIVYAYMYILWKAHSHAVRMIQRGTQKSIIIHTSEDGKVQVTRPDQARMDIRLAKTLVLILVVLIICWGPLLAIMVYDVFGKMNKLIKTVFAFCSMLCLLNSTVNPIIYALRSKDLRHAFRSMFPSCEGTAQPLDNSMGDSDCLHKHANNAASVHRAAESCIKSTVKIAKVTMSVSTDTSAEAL

SMILES | body weight [1] | food intake [2] | IC50 [3] [nM]
Cc1c(C(=O)NN2CCCCC2)nn(-c2ccc(Cl)cc2Cl)c1-c1ccc(Cl)cc1 [SR 141716] | significantly reduced body weight | reduces food intake in wild-type but not knockout mice | –
Cc1c(C(=O)NN2CCCCC2)nc(-c2ccc(OC(F)(F)F)cc2)n1CC1CCCCO1 (centres unmarked) [Example 1, 5-Methyl-1-(tetrahydro-pyran-2-ylmethyl)-2-(4-trifluoromethoxy-phenyl)-1H-imidazole-4-carboxylic acid piperidin-1-ylamide] | – | – | 120
Cc1c(C(=O)NC2CCCCC2)cc(-c2ccccc2OC(F)(F)F)n1CC1COCCO1 (racemic) [Example 10, (rac) 1-[1,4]Dioxan-2-ylmethyl-2-methyl-5-(2-trifluoromethoxy-phenyl)-1H-pyrrole-3-carboxylic acid cyclohexylamide] | – | – | 76
Cc1c(C(=O)NC2CCCCC2)cc(-c2cc(C(F)(F)F)ccc2C(F)(F)F)n1C[C@H]1CCCO1 [Example 23, 5-(2,5-Bis-trifluoromethyl-phenyl)-2-methyl-1-[(R)-1-(tetrahydro-furan-2-yl)methyl]-1H-pyrrole-3-carboxylic acid cyclohexylamide] | – | – | 8
